Measurements published in paper PMC8398451, “Molecular Engineering of Curcumin, an Active Constituent of Curcuma longa L. (Turmeric) of the Family Zingiberaceae with Improved Antiproliferative Activity” (Plants, 2021).

What was measured:
[1] = test system: Breast Cancer cell line panel; test: NCI antiproliferative assay, panel summary; assay type: cell-based, Human; details: 10 µM
OVCAR-4 = test: NCI antiproliferative SRB assay, Ovarian Cancer panel; assay type: cell-based, Human; details: one dose 10 µM
UACC-62 = test: NCI antiproliferative SRB assay, Melanoma panel; assay type: cell-based, Human; details: one dose 10 µM
OVCAR-8 = test: NCI antiproliferative SRB assay, Ovarian Cancer panel; assay type: cell-based, Human; details: one dose 10 µM
NCI-H226 = test: NCI antiproliferative SRB assay, Non-Small Cell Lung Cancer panel; assay type: cell-based, Human; details: one dose 10 µM
HT29 = test: NCI antiproliferative SRB assay, Colon Cancer panel; assay type: cell-based, Human; details: one dose 10 µM
EKVX = test: NCI antiproliferative SRB assay, Non-Small Cell Lung Cancer panel; assay type: cell-based, Human; details: one dose 10 µM
UO-31 = test: NCI antiproliferative SRB assay, Renal Cancer panel; assay type: cell-based, Human; details: one dose 10 µM
LOX IMVI = test: NCI antiproliferative SRB assay, Melanoma panel; assay type: cell-based, Human; details: one dose 10 µM
[2] = test system: Renal Cancer cell line panel; test: NCI antiproliferative assay, panel summary; assay type: cell-based, Human; details: Renal Cancer panel; 10 µM
HL-60(TB) = test: cells; assay type: cell-based; details: one dose 10 µM
SK-MEL-28 = test: NCI antiproliferative SRB assay, Melanoma panel; assay type: cell-based, Human; details: one dose 10 µM
M14 = test: NCI antiproliferative SRB assay, Melanoma panel; assay type: cell-based, Human; details: one dose 10 µM
SN 12C = test: NCI antiproliferative SRB assay, Renal Cancer panel; assay type: cell-based, Human; details: one dose 10 µM
SF-539 = test: NCI antiproliferative SRB assay, CNS Cancer panel; assay type: cell-based, Human; details: one dose 10 µM
NCI-H322M = test: NCI antiproliferative SRB assay, Non-Small Cell Lung Cancer panel; assay type: cell-based, Human; details: one dose 10 µM
[3] = test system: Ovarian Cancer cell line panel; test: NCI antiproliferative assay, panel summary; assay type: cell-based, Human; details: 10 µM
MDA-MB-231 = test: NCI antiproliferative SRB assay, Breast Cancer panel; assay type: cell-based; details: one dose 10 µM
COLO 205 = test: NCI antiproliferative SRB assay, Colon Cancer panel; assay type: cell-based, Human; details: one dose 10 µM
NCI-H460 = test: NCI antiproliferative SRB assay, Non-Small Cell Lung Cancer panel; assay type: cell-based, Human; details: one dose 10 µM
786–0 = test: NCI antiproliferative SRB assay, Renal Cancer panel; assay type: cell-based, Human; details: one dose 10 µM
NCI-H23 = test: NCI antiproliferative SRB assay, Non-Small Cell Lung Cancer panel; assay type: cell-based, Human; details: one dose 10 µM
CAKI-1 = test: NCI antiproliferative SRB assay, Renal Cancer panel; assay type: cell-based, Human; details: one dose 10 µM
[4] = test system: Non-Small Cell Lung Cancer cell line panel; test: NCI antiproliferative assay, panel summary; assay type: cell-based, Human; details: 10 µM
NCI/ADR-RES = test: NCI antiproliferative SRB assay, Ovarian Cancer panel; assay type: cell-based, Human; details: one dose 10 µM
HCC-2998 = test: NCI antiproliferative SRB assay, Colon Cancer panel; assay type: cell-based, Human; details: one dose 10 µM
SR = test: NCI antiproliferative SRB assay, Leukemia panel; assay type: cell-based, Human; details: one dose 10 µM
OVCAR-5 = test: NCI antiproliferative SRB assay, Ovarian Cancer panel; assay type: cell-based, Human; details: one dose 10 µM
HCT-15 = test: NCI antiproliferative SRB assay, Colon Cancer panel; assay type: cell-based, Human; details: one dose 10 µM
OVCAR-3 = test: NCI antiproliferative SRB assay, Ovarian Cancer panel; assay type: cell-based, Human; details: one dose 10 µM

SMILES: COc1ccc(/C=C/c2cc(/C=C/c3ccc(OC)c(O)c3)n(-c3cccc(Cl)c3)c(=S)n2)cc1O [3a]
- Mean % GI [1]: 26.56%
- %GI (OVCAR-4): 17.45%
- GP (growth percent) (OVCAR-4): 82.55
- %GI (UACC-62): 17.81%
- GP (growth percent) (UACC-62): 82.19
- %GI (OVCAR-8): 28.57%
- GP (growth percent) (OVCAR-8): 71.43
- %GI (NCI-H226): 1.46%
- GP (growth percent) (NCI-H226): 98.54
- %GI (HT29): 53.43%
- GP (growth percent) (HT29): 46.57
- %GI (EKVX): 14.19%
- GP (growth percent) (EKVX): 85.81
- %GI (UO-31): 28.74%
- GP (growth percent) (UO-31): 71.26
- %GI (LOX IMVI): 21.36%
- GP (growth percent) (LOX IMVI): 78.64
- Mean % GI [2]: 7.23%
- %GI (HL-60(TB)): 16.52%
- GP (growth percent) (HL-60(TB)): 83.48
- %GI (SK-MEL-28): 7.56%
- GP (growth percent) (SK-MEL-28): 92.44
- %GI (M14): 5.96%
- GP (growth percent) (M14): 94.04
- %GI (SN 12C): 7.39%
- GP (growth percent) (SN 12C): 92.61
- %GI (SF-539): 6.89%
- GP (growth percent) (SF-539): 93.11
- %GI (NCI-H322M): 8.07%
- GP (growth percent) (NCI-H322M): 91.93
- Mean % GI [3]: 7.04%
- %GI (MDA-MB-231): 31.75%
- GP (growth percent) (MDA-MB-231): 68.25
- %GI (COLO 205): −7.08%
- GP (growth percent) (COLO 205): 107.08
- %GI (NCI-H460): 10.49%
- GP (growth percent) (NCI-H460): 89.51
- %GI (786–0): 5.38%
- GP (growth percent) (786–0): 94.62
- %GI (NCI-H23): 9.05%
- GP (growth percent) (NCI-H23): 90.95
- %GI (CAKI-1): 20.96%
- GP (growth percent) (CAKI-1): 79.04
- Mean % GI [4]: 17.22%
- %GI (NCI/ADR-RES): 3.63%
- GP (growth percent) (NCI/ADR-RES): 96.37
- %GI (HCC-2998): −3.70%
- GP (growth percent) (HCC-2998): 103.70
- %GI (SR): 51.28%
- GP (growth percent) (SR): 48.72
- %GI (OVCAR-5): −12.92%
- GP (growth percent) (OVCAR-5): 112.92
- %GI (HCT-15): 6.07%
- GP (growth percent) (HCT-15): 93.93
- %GI (OVCAR-3): 8.70%
- GP (growth percent) (OVCAR-3): 91.30
